Measured values from patent US6737383B1, “Herbicidal oxadiazolidines” (priority 1999, dated 2004).

Legend:
duck salad = assay: Test B flood test duck salad; type: in vivo, Heteranthera limosa
Procedure, shortened: (§1)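 Each value is a visual injury score relative to controls, with 10 meaning complete control and 0 no effect. Evaluation took place twelve to sixteen days after the 2-leaf-stage plants were treated and kept in the greenhouse.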

surinam grass = assay: Test B pre/postemergence surinam grass; type: in vivo, Brachiaria decumbens
Procedure, shortened: (§2)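 Test chemicals in a non-phytotoxic solvent mixture with surfactant were sprayed preemergence onto planted seeds and postemergence onto plants 2 to 18 cm tall (1- to 4-leaf stage). After twelve to sixteen days in a greenhouse, injury was visually rated against untreated controls from 0 (no effect) to 10 (complete control).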

velvetleaf = assay: Test B pre/postemergence velvetleaf; type: in vivo, Abutilon theophrasti
Procedure, shortened: as §2

blackgrass = assay: Test B pre/postemergence blackgrass; type: in vivo, Alopecurus myosuroides
Procedure, shortened: as §2

rice = assay: Test B flood test rice; type: in vivo, Oryza sativa
Procedure, shortened: as §1

rape = assay: Test B pre/postemergence rape; type: in vivo, Brassica napus
Procedure, shortened: as §2

cocklebur = assay: Test B pre/postemergence cocklebur; type: in vivo, Xanthium strumarium
Procedure, shortened: as §2

purple nutsedge = assay: Test B pre/postemergence purple nutsedge; type: in vivo, Cyperus rotundus
Procedure, shortened: as §2

bedstraw = assay: Test B pre/postemergence bedstraw; type: in vivo, Galium aparine
Procedure, shortened: as §2

corn = assay: Test B pre/postemergence corn; type: in vivo, Zea mays
Procedure, shortened: as §2

sugar beet = assay: Test B pre/postemergence sugar beet; type: in vivo, Beta vulgaris
Procedure, shortened: as §2

pigweed = assay: Test B pre/postemergence pigweed; type: in vivo, Amaranthus retroflexus
Procedure, shortened: as §2

giant foxtail = assay: Test B pre/postemergence giant foxtail; type: in vivo, Setaria faberii
Procedure, shortened: as §2

bamyardgrass = assay: Test B flood test barnyardgrass; type: in vivo, Echinochloa crus-galli
Procedure, shortened: as §1

morningglory = assay: Test B pre/postemergence morningglory; type: in vivo, Ipomoea hederacea
Procedure, shortened: as §2

[1] = Rate 62 g/ha, flood test species, Pre-emergence, visual evaluation after twelve to sixteen days
[2] = Rate 125 g/ha, under heading Pre-emergence, flood test species, visual evaluation after twelve to sixteen days
[3] = Rate 250 g/ha, Pre-emergence (flood test species), scale 0 to 10, 0 is no effect, 10 is complete control
[4] = Rate 500 g/ha, Pre-emergence section of Table B, 0 to 10 scale (0 no effect, 10 complete control)
[5] = Postemergence, Rate 62 g/ha, scale 0 to 10, 0 is no effect, 10 is complete control
[6] = Postemergence, Rate 125 g/ha, scale of 0 to 10 where 0 is no effect and 10 is complete control
[7] = Postemergence, Rate 250 g/ha, scale of 0 to 10, 0 is no effect, 10 is complete control
[8] = Postemergence, Rate 500 g/ha, scale of 0 to 10 where 0 is no effect and 10 is complete control
[9] = Preemergence, Rate 62 g/ha, scale 0 to 10 (0 no effect, 10 complete control)
[10] = Preemergence, Rate 125 g/ha, scale of 0 to 10 where 0 is no effect and 10 is complete control
[11] = Preemergence, Rate 250 g/ha, scale 0 to 10 (0 no effect, 10 complete control)
[12] = Preemergence, Rate 500 g/ha, scale of 0 to 10 where 0 is no effect and 10 is complete control

CC(C)N(C(=O)n1oc(=O)n(CNC(=O)c2ccccc2)c1=O)c1ccccc1 [Compound 620]
2: Plant response rating, Giant foxtail (giant foxtail; [11]) | Plant response rating, Morningglory (morningglory; [5]) | Morningglory plant response rating (morningglory; [7])
9: Plant response rating, Giant foxtail (giant foxtail; [12])
0: Plant response rating, Ducksalad (0 to 10 scale, 0 is no effect, 10 is complete control) (duck salad; [1]) | Ducksalad plant response rating (0 to 10 scale, 0 is no effect, 10 is complete control) (duck salad; [2]) | Ducksalad plant response rating (duck salad; [3]) | Ducksalad plant response rating (duck salad; [4]) | Plant response rating, B. signalgrass (surinam grass; [5]) | Plant response rating, B. signalgrass (surinam grass; [6]) | B. signalgrass plant response rating (surinam grass; [7]) | Plant response rating, B. signalgrass (surinam grass; [8]) | B. signalgrass plant response rating (surinam grass; [9]) | B. signalgrass plant response rating (surinam grass; [10]) | Plant response rating, B. signalgrass (surinam grass; [11]) | B. signalgrass plant response rating (surinam grass; [12]) | Plant response rating, Velvetleaf (velvetleaf; [5]) | Plant response rating, Velvetleaf (velvetleaf; [6]) | Velvetleaf plant response rating (velvetleaf; [7]) | Velvetleaf plant response rating (velvetleaf; [9]) | Velvetleaf plant response rating (velvetleaf; [10]) | Plant response rating, Velvetleaf (velvetleaf; [11]) | Plant response rating, Velvetleaf (velvetleaf; [12]) | Plant response rating, Blackgrass (blackgrass; [5]) | Plant response rating, Blackgrass (blackgrass; [6]) | Blackgrass plant response rating (blackgrass; [7]) | Plant response rating, Blackgrass (blackgrass; [8]) | Blackgrass plant response rating (blackgrass; [9]) | Blackgrass plant response rating (blackgrass; [10]) | Plant response rating, Blackgrass (blackgrass; [11]) | Blackgrass plant response rating (blackgrass; [12]) | Plant response rating, Rice (0 to 10 scale, 0 is no effect, 10 is complete control) (rice; [1]) | Rice plant response rating (0 to 10 scale, 0 is no effect, 10 is complete control) (rice; [2]) | Rice plant response rating (rice; [3]) | Rice plant response rating (rice; [4]) | Plant response rating, Rape (rape; [5]) | Plant response rating, Rape (rape; [6]) | Rape plant response rating (rape; [7]) | Plant response rating, Rape (rape; [8]) | Rape plant response rating (rape; [9]) | Rape plant response rating (rape; [10]) | Plant response rating, Rape (rape; [11]) | Plant response rating, Rape (rape; [12]) | Plant response rating, Cocklebur (cocklebur; [5]) | Plant response rating, Cocklebur (cocklebur; [6]) | Cocklebur plant response rating (cocklebur; [7]) | Plant response rating, Cocklebur (cocklebur; [8]) | Cocklebur plant response rating (cocklebur; [9]) | Cocklebur plant response rating (cocklebur; [10]) | Plant response rating, Cocklebur (cocklebur; [11]) | Plant response rating, Cocklebur (cocklebur; [12]) | Plant response rating, Nutsedge (purple nutsedge; [5]) | Plant response rating, Nutsedge (purple nutsedge; [6]) | Nutsedge plant response rating (purple nutsedge; [7]) | Plant response rating, Nutsedge (purple nutsedge; [8]) | Nutsedge plant response rating (purple nutsedge; [9]) | Nutsedge plant response rating (purple nutsedge; [10]) | Plant response rating, Nutsedge (purple nutsedge; [11]) | Plant response rating, Nutsedge (purple nutsedge; [12]) | Plant response rating, Bedstraw (bedstraw; [5]) | Bedstraw plant response rating (bedstraw; [9]) | Bedstraw plant response rating (bedstraw; [10]) | Plant response rating, Bedstraw (bedstraw; [11]) | Bedstraw plant response rating (bedstraw; [12]) | Plant response rating, Corn (corn; [5]) | Plant response rating, Corn (corn; [6]) | Corn plant response rating (corn; [7]) | Plant response rating, Corn (corn; [8]) | Corn plant response rating (corn; [9]) | Corn plant response rating (corn; [10]) | Plant response rating, Corn (corn; [11]) | Plant response rating, Corn (corn; [12]) | Plant response rating, Sugarbeets (sugar beet; [5]) | Plant response rating, Sugarbeets (sugar beet; [6]) | Sugarbeets plant response rating (sugar beet; [7]) | Sugarbeets plant response rating (sugar beet; [9]) | Sugarbeets plant response rating (sugar beet; [10]) | Plant response rating, Sugarbeets (sugar beet; [11]) | Plant response rating, Sugarbeets (sugar beet; [12]) | Plant response rating, Redroot pigweed (pigweed; [5]) | Plant response rating, Redroot pigweed (pigweed; [6]) | Redroot pigweed plant response rating (pigweed; [7]) | Redroot pigweed plant response rating (pigweed; [9]) | Redroot pigweed plant response rating (pigweed; [10]) | Plant response rating, Redroot pigweed (pigweed; [11]) | Plant response rating, Redroot pigweed (pigweed; [12]) | Plant response rating, Giant foxtail (giant foxtail; [5]) | Plant response rating, Giant foxtail (giant foxtail; [6]) | Giant foxtail plant response rating (giant foxtail; [7]) | Giant foxtail plant response rating (giant foxtail; [9]) | Giant foxtail plant response rating (giant foxtail; [10]) | Plant response rating, Barnyardgrass (0 to 10 scale, 0 is no effect, 10 is complete control) (bamyardgrass; [1]) | Barnyardgrass plant response rating (0 to 10 scale, 0 is no effect, 10 is complete control) (bamyardgrass; [2]) | Barnyardgrass plant response rating (bamyardgrass; [3]) | Barnyardgrass plant response rating (bamyardgrass; [4]) | Morningglory plant response rating (morningglory; [9]) | Morningglory plant response rating (morningglory; [10]) | Plant response rating, Morningglory (morningglory; [11]) | Plant response rating, Morningglory (morningglory; [12])
